In ChEMBL document CHEMBL4334553, “Discovery of Hydroxyamidine Based Inhibitors of IDO1 for Cancer Immunotherapy with Reduced Potential for Glucuronidation” (ACS Med Chem Lett, 2020):
One block for each compound: values may come before it. Calls of active or inactive are those of the source. The calls are words filed in the database; no cut-off is given here.

Tests used:
[1] = biological target: T1, Indoleamine 2,3-dioxygenase 1 (Homo sapiens, UniProt P14902); assay: Inhibition of human N-terminal GST-tagged IDO1 expressed in Escherichia coli Rosetta(DE3) pLysS using L-tryptophan as substrate measured after 1 hr by fluorescence assay
[2] = biological target: T2, UGT1A9 (Homo sapiens, UniProt O60656); assay: Stability assessed as recombinant UGT1A9 (unknown origin) mediated compound glucuronidation by measuring half-life at 1 uM incubated in water bath by shaking at 37 degree C measured upto 60 mins in presence of UDPGA by LC-MS/MS analysis; format: ADME
T2 sequence (O60656 whole entry): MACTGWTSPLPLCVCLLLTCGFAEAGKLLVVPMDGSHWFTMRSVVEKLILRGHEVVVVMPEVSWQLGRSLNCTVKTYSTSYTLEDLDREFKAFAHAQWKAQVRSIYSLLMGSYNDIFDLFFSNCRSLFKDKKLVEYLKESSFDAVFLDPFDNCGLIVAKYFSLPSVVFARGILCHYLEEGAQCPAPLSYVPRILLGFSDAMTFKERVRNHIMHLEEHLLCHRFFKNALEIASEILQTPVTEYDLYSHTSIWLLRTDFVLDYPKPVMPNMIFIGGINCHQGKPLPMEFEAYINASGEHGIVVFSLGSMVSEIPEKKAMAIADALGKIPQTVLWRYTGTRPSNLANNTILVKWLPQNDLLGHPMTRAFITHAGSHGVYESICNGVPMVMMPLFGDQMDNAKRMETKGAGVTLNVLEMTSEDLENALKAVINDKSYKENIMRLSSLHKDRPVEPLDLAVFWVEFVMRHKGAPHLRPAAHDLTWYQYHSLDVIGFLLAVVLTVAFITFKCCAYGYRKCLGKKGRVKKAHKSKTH

[3] = Half life in mouse liver microsomes; format: ADME, Microsome
[4] = Half life in human liver microsomes; format: ADME, Microsome
[5] = biological target: T1, Indoleamine 2,3-dioxygenase 1; assay: Inhibition of IDO1 in interferon-gamma-induced human SKOV3 cells assessed as N-formylkynurenine formation using L-tryptophan as substrate measured after 24 hrs by fluorescence assay
[6] = Cmax in humanized PXB-mouse assessed as ratio of glucuronide to parent compound at 10 mg/kg, po administered as single dose; format: ADME, organism-based; details: in vivo
[7] = Oral bioavailability in rat at 5 mg/kg administered as single dose by capillary micro-sampling analysis; format: ADME, organism-based; details: in vivo
[8] = test system: CT26; assay: (§1) Synergistic antitumor activity against mouse CT26 cells implanted in immunocompetent BALB/c mouse assessed as reduction in tumour growth at 100 mg/kg, po administered twice daily over 15 days starting from day 10 post implantation in presence of CTLA-4 antibody at 100 ug, ip administered at day 3,6,9 measured thrice per week by digital caliper method and monitored for 45 days; format: functional, organism-based
[9] = test system: CT26; assay: as §1, with “survival at […]” for “reduction in tumour growth”, “week” for “week by digital caliper method”; format: functional, organism-based
[10] = Half-life in rat at 1 mg/kg, iv administered as single dose by capillary micro-sampling analysis; format: ADME, organism-based; details: in vivo
[11] = Volume of distribution in rat at 1 mg/kg, iv administered as single dose by capillary micro-sampling analysis; format: ADME, organism-based; details: in vivo
[12] = biological target: Cytochrome P450 2D6 (Homo sapiens, UniProt P10635); assay: Inhibition of CYP2D6 (unknown origin); format: ADME
[13] = Protein binding in rat plasma; format: ADME, cell-free; details: read-out: PPB (converted)
[14] = test system: CT26; assay: Antitumor activity against mouse CT26 cells implanted in immunocompetent BALB/c mouse assessed as reduction in tumour growth at 100 mg/kg, po administered twice daily over 15 days starting from day 10 post implantation measured thrice per week by digital caliper method; format: functional, organism-based
[15] = Clearance in rat at 1 mg/kg, iv administered as single dose by capillary micro-sampling analysis; format: ADME, organism-based; details: in vivo
[16] = Protein binding in mouse plasma; format: ADME, cell-free; details: read-out: PPB (converted)
[17] = Protein binding in human plasma; format: ADME, cell-free; details: read-out: PPB (converted)
[18] = Half life in mouse at 10 mg/kg, po by capillary micro-sampling analysis; format: ADME, organism-based; details: in vivo
[19] = biological target: Cytochrome P450 2C9 (Homo sapiens, UniProt P11712); assay: Inhibition of CYP2C9 (unknown origin); format: ADME
[20] = biological target: Cytochrome P450 2C19 (Homo sapiens, UniProt P33261); assay: Inhibition of CYP2C19 (unknown origin); format: ADME
[21] = AUC (0 to 24 hrs) in rat at 5 mg/kg, po administered as single dose by capillary micro-sampling analysis; format: ADME, organism-based; set-up: dose 5 mg/kg, time < 24 hr, route oral; details: in vivo
[22] = Half life in rat liver microsomes; format: ADME, Microsome
[23] = test system: Mus musculus; assay: In vivo inhibition of IDO1 in C57BL/6J mouse assessed as reduction in LPS-induced kynurenine level in plasma at 100 mg/kg, po administered via gavage measured after 24 hrs by LC-MS/MS analysis; format: functional, organism-based
[24] = biological target: T1, Indoleamine 2,3-dioxygenase 1; assay: Inhibition IDO1 in LPS/IFN-gamma stimulated human whole blood assessed as reduction in tryptophan/kynurenine level preincubated for 15 mins followed by LPS/IFN-gamma stimulation measured after 20 hrs by LC-MS/MS analysis; format: tissue-based
[25] = biological target: Tryptophan 2,3-dioxygenase (Homo sapiens, UniProt P48775); assay: Inhibition of TDO in human HEK cells; format: cell-based
[26] = AUC (0 to 24 hrs) in mouse at 10 mg/kg, po by capillary micro-sampling analysis; format: ADME, organism-based; set-up: dose 10 mg/kg, time < 24 hr, route oral; details: in vivo
[27] = biological target: Cytochrome P450 3A4 (Homo sapiens, UniProt P08684); assay: Inhibition of CYP3A4 (unknown origin); format: ADME
[28] = AUC in humanized PXB-mouse assessed as ratio of glucuronide to parent compound at 10 mg/kg, po administered as single dose; format: ADME, organism-based; details: in vivo
[29] = Cmax in mouse at 10 mg/kg, po by capillary micro-sampling analysis; format: ADME, organism-based; set-up: dose 10 mg/kg, route oral; details: in vivo
[30] = Cmax in rat at 5 mg/kg, po administered as single dose by capillary micro-sampling analysis; format: ADME, organism-based; set-up: dose 5 mg/kg, route oral; details: in vivo

T1 sequence (P14902 whole entry): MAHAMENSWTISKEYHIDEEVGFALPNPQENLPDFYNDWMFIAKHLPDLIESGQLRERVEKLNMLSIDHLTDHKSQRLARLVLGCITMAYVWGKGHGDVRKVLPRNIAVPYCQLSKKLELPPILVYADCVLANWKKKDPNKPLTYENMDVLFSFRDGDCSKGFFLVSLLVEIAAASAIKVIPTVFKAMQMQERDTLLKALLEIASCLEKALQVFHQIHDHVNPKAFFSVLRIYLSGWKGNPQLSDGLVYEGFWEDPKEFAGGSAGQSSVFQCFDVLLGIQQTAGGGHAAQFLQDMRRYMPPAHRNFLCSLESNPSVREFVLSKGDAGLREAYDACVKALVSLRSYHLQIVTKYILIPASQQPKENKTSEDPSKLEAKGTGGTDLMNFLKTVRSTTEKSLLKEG
Tryptophan 2,3-dioxygenase, sequence (P48775 whole entry): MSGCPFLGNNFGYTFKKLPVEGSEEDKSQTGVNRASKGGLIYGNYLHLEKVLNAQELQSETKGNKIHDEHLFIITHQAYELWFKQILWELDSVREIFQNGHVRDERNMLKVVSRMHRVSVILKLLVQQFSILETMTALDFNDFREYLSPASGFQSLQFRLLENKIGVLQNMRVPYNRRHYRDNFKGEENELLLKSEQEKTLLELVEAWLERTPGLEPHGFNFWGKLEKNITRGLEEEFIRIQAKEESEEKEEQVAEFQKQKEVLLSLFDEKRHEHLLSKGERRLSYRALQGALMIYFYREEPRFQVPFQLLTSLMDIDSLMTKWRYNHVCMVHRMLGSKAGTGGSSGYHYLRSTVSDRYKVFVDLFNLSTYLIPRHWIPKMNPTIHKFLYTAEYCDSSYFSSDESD
Cytochrome P450 2C19, sequence (P33261 whole entry): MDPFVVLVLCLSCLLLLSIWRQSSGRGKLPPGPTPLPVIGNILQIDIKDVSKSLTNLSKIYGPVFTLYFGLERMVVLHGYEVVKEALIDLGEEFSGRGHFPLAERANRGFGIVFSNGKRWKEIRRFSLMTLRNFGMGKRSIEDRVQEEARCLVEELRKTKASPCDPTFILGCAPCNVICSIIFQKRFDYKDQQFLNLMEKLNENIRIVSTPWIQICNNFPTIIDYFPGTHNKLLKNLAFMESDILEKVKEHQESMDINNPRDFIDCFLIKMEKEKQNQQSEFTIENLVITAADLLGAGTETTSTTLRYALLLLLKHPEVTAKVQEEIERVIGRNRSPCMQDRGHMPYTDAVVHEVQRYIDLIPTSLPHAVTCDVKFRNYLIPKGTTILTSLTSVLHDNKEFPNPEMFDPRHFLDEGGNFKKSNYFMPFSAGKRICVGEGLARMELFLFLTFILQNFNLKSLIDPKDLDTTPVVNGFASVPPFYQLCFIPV
Cytochrome P450 3A4, sequence (P08684 whole entry): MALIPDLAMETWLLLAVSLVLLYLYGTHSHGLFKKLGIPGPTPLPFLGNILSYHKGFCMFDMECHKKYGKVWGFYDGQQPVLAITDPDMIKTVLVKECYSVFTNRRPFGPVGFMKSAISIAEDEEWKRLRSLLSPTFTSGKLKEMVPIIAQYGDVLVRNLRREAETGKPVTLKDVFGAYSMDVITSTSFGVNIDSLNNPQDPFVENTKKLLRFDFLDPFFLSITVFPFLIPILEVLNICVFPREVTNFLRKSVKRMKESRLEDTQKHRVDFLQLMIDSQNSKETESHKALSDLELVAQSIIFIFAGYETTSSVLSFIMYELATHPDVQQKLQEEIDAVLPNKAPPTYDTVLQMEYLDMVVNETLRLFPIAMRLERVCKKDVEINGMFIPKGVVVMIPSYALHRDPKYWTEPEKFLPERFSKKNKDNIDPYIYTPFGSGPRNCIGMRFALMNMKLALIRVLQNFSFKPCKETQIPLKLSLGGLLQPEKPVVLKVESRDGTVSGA
Cytochrome P450 2C9, sequence (P11712 whole entry): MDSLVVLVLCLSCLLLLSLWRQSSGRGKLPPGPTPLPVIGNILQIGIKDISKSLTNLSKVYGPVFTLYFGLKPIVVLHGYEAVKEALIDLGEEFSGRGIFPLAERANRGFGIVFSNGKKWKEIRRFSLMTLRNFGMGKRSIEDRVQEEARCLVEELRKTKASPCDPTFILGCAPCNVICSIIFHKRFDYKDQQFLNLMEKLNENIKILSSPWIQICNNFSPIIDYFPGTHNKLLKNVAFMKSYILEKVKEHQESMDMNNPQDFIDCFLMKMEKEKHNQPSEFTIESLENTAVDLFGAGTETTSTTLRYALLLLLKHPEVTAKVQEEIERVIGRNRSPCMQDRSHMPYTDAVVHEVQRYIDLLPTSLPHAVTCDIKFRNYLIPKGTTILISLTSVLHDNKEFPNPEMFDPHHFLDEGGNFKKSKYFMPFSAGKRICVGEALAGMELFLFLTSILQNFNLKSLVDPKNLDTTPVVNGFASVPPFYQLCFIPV
Cytochrome P450 2D6, sequence (P10635 whole entry): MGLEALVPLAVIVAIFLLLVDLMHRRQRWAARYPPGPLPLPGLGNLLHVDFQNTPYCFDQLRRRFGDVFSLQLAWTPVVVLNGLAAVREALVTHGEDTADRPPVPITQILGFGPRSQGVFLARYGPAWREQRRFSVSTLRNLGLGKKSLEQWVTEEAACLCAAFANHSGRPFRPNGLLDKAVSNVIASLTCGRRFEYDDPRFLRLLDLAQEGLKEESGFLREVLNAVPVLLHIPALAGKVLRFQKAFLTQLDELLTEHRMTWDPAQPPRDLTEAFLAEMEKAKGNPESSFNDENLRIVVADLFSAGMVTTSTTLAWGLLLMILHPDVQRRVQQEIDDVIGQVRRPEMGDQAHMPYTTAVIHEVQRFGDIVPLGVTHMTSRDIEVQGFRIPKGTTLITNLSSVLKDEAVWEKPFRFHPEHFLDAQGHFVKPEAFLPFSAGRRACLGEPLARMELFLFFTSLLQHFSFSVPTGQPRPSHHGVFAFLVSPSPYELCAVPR

Structure (SMILES): NS(=O)(=O)CC(=O)NCCSc1nonc1/C(=N/O)Nc1cccc(C(F)(F)F)c1
IC50 [1]: 0.14 µM
half-life at 1 µM [2]: > 3 h
half-life [3]: 0.44 h
half-life [4]: 1.95 h
IC50 [5]: 0.012 µM

Structure (SMILES): NS(=O)(=O)CC(=O)NCCSc1nonc1/C(=N/O)Nc1cccc(C(F)F)c1
IC50 [1]: 0.13 µM
half-life at 1 µM [2]: > 3 h
half-life [3]: 1.5 h
half-life [4]: > 3 h
IC50 [5]: 0.017 µM

Structure (SMILES): NS(=O)(=O)NCCSc1nonc1/C(=N/O)Nc1ccc(F)c(Br)c1
IC50 [1]: 0.13 µM
half-life at 1 µM [2]: 0.183 h
IC50 [5]: 0.0028 µM

Structure (SMILES): CS(=O)(=O)CC(=O)NCCSc1nonc1/C(=N/O)Nc1ccc(F)c(C(F)F)c1
IC50 [1]: 0.1 µM
half-life at 1 µM [2]: 1.59 h
half-life [3]: 0.765 h
half-life [4]: 1.27 h
IC50 [5]: 0.014 µM

Structure (SMILES): CS(=O)(=O)CCC(=O)NCCSc1nonc1/C(=N/O)Nc1ccc(F)c(Br)c1
IC50 [1]: 0.14 µM
half-life at 1 µM [2]: 0.858 h
half-life [3]: 1.66 h
half-life [4]: 2.43 h
IC50 [5]: 0.0076 µM

Structure (SMILES): C[C@@H](CSc1nonc1/C(=N/O)Nc1ccc(F)c(Br)c1)NC(=O)CS(N)(=O)=O
IC50 [1]: 0.093 µM
half-life at 1 µM [2]: > 3 h
half-life [3]: 0.398 h
half-life [4]: 1.57 h
IC50 [5]: 0.019 µM

Structure (SMILES): NS(=O)(=O)NCCNc1nonc1C(=NO)Nc1ccc(F)c(Br)c1 [EPACADOSTAT]
half-life at 1 µM [2]: 0.383 h

Structure (SMILES): NS(=O)(=O)NCCOc1nonc1/C(=N/O)Nc1ccc(F)c(Br)c1
IC50 [1]: 0.15 µM
half-life at 1 µM [2]: 0.0483 h
IC50 [5]: 0.012 µM

Further compounds by falling IC50 [1], results first:

IC50 [1]: 0.084 µM
half-life at 1 µM [2]: 1.45 h
half-life [3]: 0.923 h
half-life [4]: 1.88 h
IC50 [5]: 0.013 µM
Structure (SMILES): NS(=O)(=O)CC(=O)NCCSc1nonc1/C(=N/O)Nc1ccc(F)c(C(F)(F)F)c1

IC50 [1]: 0.073 µM
half-life at 1 µM [2]: > 3 h
half-life [3]: 1.07 h
half-life [4]: 2.77 h
IC50 [5]: 0.013 µM
Structure (SMILES): NS(=O)(=O)CC(=O)NCCSc1nonc1/C(=N/O)Nc1ccc(F)c(C(F)F)c1

IC50 [1]: 0.061 µM
half-life at 1 µM [2]: 1.53 h
half-life [3]: 1.25 h
half-life [4]: 2.65 h
IC50 [5]: 0.014 µM
Structure (SMILES): CS(=N)(=O)CC(=O)NCCSc1nonc1/C(=N/O)Nc1ccc(F)c(Br)c1 (configuration not stated)

IC50 [1]: 0.03 µM
half-life at 1 µM [2]: 0.955 h
half-life [3]: 0.918 h
half-life [4]: > 3 h
IC50 [5]: 0.0081 µM
Structure (SMILES): NS(=O)(=O)CC(=O)NCCSc1nonc1/C(=N/O)Nc1cccc(Br)c1

Ratio [6]: > 3
bioavailability [7]: 28%
half-life [10]: 1.5 h
Vd [11]: 0.33 L/kg
IC50 [12]: > 10 µM
IC50 [1]: 0.021 µM
fraction unbound [13]: 0.043
half-life at 1 µM [2]: 0.9 h
clearance [15]: 0.219 L/h/kg
half-life [3]: 1.26 h
half-life [4]: > 3 h
fraction unbound [16]: 0.026
fraction unbound [17]: 0.046
half-life [18]: 2.6 h
IC50 [19]: > 10 µM
IC50 [20]: > 10 µM
AUC(0-t) at 24 h [21]: 26 µM·h
half-life [22]: 0.562 h
IC50 [24]: 0.22 µM
IC50 [25]: > 10 µM
IC50 [5]: 0.01 µM
AUC(0-t) at 24 h [26]: 11.9 µM·h
IC50 [27]: > 10 µM
Ratio [28]: > 2
Cmax [29]: 5 µM
Cmax [30]: 5.6 µM
Structure (SMILES): NS(=O)(=O)CC(=O)NCCSc1nonc1/C(=N/O)Nc1cccc(Cl)c1
Activity [8]: Active
Activity [9]: Active
Activity [14]: Active
inhibition [23]: Active
